Experimental data as given in ChEMBL document CHEMBL4152361, “Synthesis of oxidative metabolites of CRA13 and their analogs: Identification of CRA13 active metabolites and analogs thereof with selective CB2R affinity” (Bioorg Med Chem, 2018).

Tests used:
Cannabinoid receptor 1 [1] = target: T1, Cannabinoid receptor 1 (Homo sapiens, UniProt P21554); test: Displacement of [3H]SR141716A from membrane bound human CB1 receptor after 1 hr by beta scintillation counting method
Cannabinoid receptor 2 [2] = target: T2, Cannabinoid receptor 2 (Homo sapiens, UniProt P34972); test: Displacement of [3H]CP55940 from membrane bound human CB2 receptor at 100 uM after 1 hr by beta scintillation counting method relative to control
T2 sequence (P34972 whole entry): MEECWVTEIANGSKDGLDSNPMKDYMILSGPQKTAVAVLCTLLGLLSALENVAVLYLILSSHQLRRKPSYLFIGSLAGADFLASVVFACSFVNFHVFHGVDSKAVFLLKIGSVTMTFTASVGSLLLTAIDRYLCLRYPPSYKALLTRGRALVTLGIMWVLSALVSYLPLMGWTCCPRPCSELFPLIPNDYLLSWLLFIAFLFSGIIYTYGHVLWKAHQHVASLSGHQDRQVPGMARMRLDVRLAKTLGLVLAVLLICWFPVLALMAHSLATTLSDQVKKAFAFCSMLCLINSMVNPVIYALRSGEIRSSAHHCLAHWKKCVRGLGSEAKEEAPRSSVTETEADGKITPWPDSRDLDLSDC

Homo sapiens [3] = species on record: Homo sapiens; test: Selectivity ratio of IC50 for displacement of [3H]SR141716A from membrane bound human CB1 receptor to IC50 for displacement of [3H]CP55940 from membrane bound human CB2 receptor
Cannabinoid receptor 1 [4] = target: T1, Cannabinoid receptor 1; test: Displacement of [3H]SR141716A from membrane bound human CB1 receptor at 10 uM after 1 hr by beta scintillation counting method relative to control
Cannabinoid receptor 2 [5] = target: T2, Cannabinoid receptor 2; test: Displacement of [3H]CP55940 from membrane bound human CB2 receptor after 1 hr by beta scintillation counting method
Homo sapiens [6] = species on record: Homo sapiens; test: Selectivity ratio of compound effect for displacement of [3H]CP55940 from membrane bound human CB2 receptor at 10 uM to compound effect for displacement of [3H]SR141716A from membrane bound human CB1 receptor at 10 uM
Cannabinoid receptor 1 [7] = target: T1, Cannabinoid receptor 1; test: Displacement of [3H]SR141716A from membrane bound human CB1 receptor at 100 uM after 1 hr by beta scintillation counting method relative to control
Cannabinoid receptor 2 [8] = target: T2, Cannabinoid receptor 2; test: Displacement of [3H]CP55940 from membrane bound human CB2 receptor at 10 uM after 1 hr by beta scintillation counting method relative to control
Homo sapiens [9] = species on record: Homo sapiens; test: Selectivity ratio of compound effect for displacement of [3H]SR141716A from membrane bound human CB1 receptor at 100 uM to compound effect for displacement of [3H]CP55940 from membrane bound human CB2 receptor at 100 uM

T1 sequence (P21554 whole entry): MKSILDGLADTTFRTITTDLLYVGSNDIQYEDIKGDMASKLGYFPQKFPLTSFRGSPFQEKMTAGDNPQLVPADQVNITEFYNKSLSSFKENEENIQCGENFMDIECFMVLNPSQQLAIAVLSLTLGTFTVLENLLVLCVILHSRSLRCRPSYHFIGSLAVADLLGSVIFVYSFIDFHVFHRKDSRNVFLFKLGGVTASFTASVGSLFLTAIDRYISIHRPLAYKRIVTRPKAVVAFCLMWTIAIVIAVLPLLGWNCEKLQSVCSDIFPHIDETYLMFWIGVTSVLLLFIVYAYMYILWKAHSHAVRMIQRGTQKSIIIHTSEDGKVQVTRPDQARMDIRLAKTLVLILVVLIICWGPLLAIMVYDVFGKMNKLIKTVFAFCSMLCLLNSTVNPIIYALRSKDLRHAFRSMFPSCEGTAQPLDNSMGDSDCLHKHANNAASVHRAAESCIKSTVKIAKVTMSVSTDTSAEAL

Row | Structure (SMILES) | IC50 (Cannabinoid receptor 1 [1]) [µM] | inhibition (Cannabinoid receptor 2 [2]) [%] | Ratio IC50 (Homo sapiens [3]) | inhibition (Cannabinoid receptor 1 [4]) [%] | IC50 (Cannabinoid receptor 2 [5]) [µM] | Selectivity ratio (Homo sapiens [6]) | inhibition (Cannabinoid receptor 1 [7]) [%] | inhibition (Cannabinoid receptor 2 [8]) [%] | Selectivity ratio (Homo sapiens [9])
1 | COC(=O)CCCCOc1ccc(C(=O)c2cccc3ccccc23)c2ccccc12 | > 100 | 85.6 | > 2.1 | 4.44 | 47.7 | 2.69 | 36.5 | 11.9 | 
2 | CCCCCOc1ccc(C(=O)c2cccc3ccccc23)c2ccccc12 |  |  |  | 64.2 | 5.3 |  |  | 64.2 | 
3 | O=C(c1cccc2ccccc12)c1ccc(OCCCO)c2ccccc12 | 100 | 78.5 | 6.81 | 21.3 | 14.7 | 1.76 | 55.6 | 37.4 | 
4 | COC(=O)CCCOc1ccc(C(=O)c2cccc3ccccc23)c2ccccc12 | 14.1 | 101 | 8.36 | 43.1 | 1.69 | 2.25 | 68.8 | 96.9 | 
5 | O=C(O)CCCCOc1ccc(C(=O)c2cccc3ccccc23)c2ccccc12 | > 100 | 52.1 | > 7.92 | 13 | 12.6 | 2.81 | 20.5 | 36.6 | 
6 | O=C(c1cccc2ccccc12)c1ccc(OCCCCO)c2ccccc12 | 17.9 | 89.9 | 3.55 | 31.2 | 5.05 | 2.93 | 72 | 91.7 | 
7 | O=C(c1cccc2ccccc12)c1ccc(OCCCCCO)c2ccccc12 | > 10 |  | > 9.26 | 35.8 | 1.08 | 2.1 |  | 75.3 | 
8 | O=C(c1cccc2ccccc12)c1ccc(OCCCCCCO)c2ccccc12 | > 10 |  |  | 42.6 | > 10 | 1.1 |  | 46.9 | 
9 | O=C(O)CCCOc1ccc(C(=O)c2cccc3ccccc23)c2ccccc12 | > 100 | 5.36 |  |  | > 100 |  | 16 |  | 2.99
